# Where two headings read alike, the source gives them in different places.
# Key:
# menopausal women [1] = test: Continuous combined estradiol + nomegestrol acetate, 6 months: genital bleeding; format: in vivo
# Experimental: (§1) A trial was carried out to study the effects on the endometrium of the continuous combined association of an oral estradiol dose equivalent to 1.5 mg and various doses of nomegestrol acetate.
# (§2) This consisted in the treatment for 6 consecutive months of 179 women who had been menopausal for at least 3 years, with 1.5 mg per day of estradiol combined continuously with 4 different doses of nomegestrol acetate: 5 mg/day (n=47); 2.5 mg/day (n=42); 1.25 mg/day (n=43) and 0.625 mg/day (n=47).
# (§3) The impact of these four associations on the endometrium was evaluated by recording the characteristics of genital bleeding, measuring the thickness of the endometrium by endovaginal echography before and at the end of the therapy, and by carrying out a biopsy of the endometrium before and at the end of the therapy.
# endometrium [2] = test: Continuous combined estradiol + nomegestrol acetate, 6 months: endometrial thickness by endovaginal echography; format: in vivo, women; details: 6 months continuous
# Experimental: as §1, §2, §3
# [3] = doses higher than those of the application, prolonged treatments; cited from earlier work
# endometrial cells = test: Sequential estrogen-progestative therapy: histological appearance of endometrium biopsy; format: in vivo, women; details: for Number of mitoses (% of section in which mitoses were present), Glands: with 30 μg ethinyl estradiol, biopsy Day 17-20 of second cycle
# Experimental: (§4) Menopausal women, whether naturally or as the result of surgery, were subjected to a sequential estrogen-progestative therapy. From Day 1 to Day 12 they received 30 μg of ethinyl estradiol and then, from Day 13 to Day 22, the same dose of ethinyl estradiol associated with different doses of nomegestrol acetate or chlormadinone acetate. The doses were as follows:
# (§5) The number of women was between 2 and 11, depending on the group. There was then a therapeutic pause of 7 days followed by a second treatment cycle.
# (§6) The parameters taken into account were as follows: • the interval before periods commenced after the therapy had been interrupted, following the first and second treatment cycles; • the histological appearance of the endometrium recovered in a biopsy carried out between Day 17 and Day 20 of the second cycle.
# menopausal women [4] = test: Sequential estrogen-progestative therapy: interval before periods after therapy is interrupted; format: in vivo; details: Day 13-22, with 30 μg ethinyl estradiol
# Experimental: as §4, §5, §6
# endometrium [5] = test: Continuous combined estradiol + nomegestrol acetate, 6 months: biopsy of the endometrium; format: in vivo, women
# Experimental: as §1, §2, §3
# endometrium [6] = details: cited from earlier work
# [7] = NEUMANN publication; cited from earlier work
# [8] = NEUMANN publication; cited from earlier work; remark: listed apart in the source
# endometrium [9] = details: NEUMANN publication; cited from earlier work
# ovulation [10] = test: Dose inhibiting ovulation (literature); format: in vivo; details: NEUMANN; reference progestative norgestrel (=1)
# From the text: (§7) 2) Apart from the above, it would be reasonable to think that the doses claimed should be based on data from clinical pharmacology and/or clinical data previously published and commonly accepted. Now, if the doses defined as in the PLUNKETT patents are considered, it is easy to see that in most cases the active doses published already a long time ago, i.e. before the said patents were filed (NEUMANN, 1977) or more recently (KUHL, 1996), are very coherent but only rarely lie within the dose ranges claimed in the patents in the name of PLUNKETT (Table 2).
# endometrium [11] = test: Dose inducing transformation of the endometrium (literature); format: in vivo; details: NEUMANN; reference progestative norgestrel (=1)
# From the text: as §7
# [12] = Dose having a contraceptive effect (literature); format: in vivo; details: NEUMANN; reference progestative norgestrel (=1)
# From the text: as §7
# [13] = Dose producing an adequate delay in the onset of periods (literature); format: in vivo; details: NEUMANN; reference progestative norgestrel (=1)
# From the text: as §7
# ovulation [14] = details: NEUMANN publication; cited from earlier work
# [15] = NOMAC 0.625 mg/day + estradiol (2 mg estradiol valerate)
# [16] = NOMAC 1.25 mg/day + estradiol (2 mg estradiol valerate)
# [17] = NOMAC 2.5 mg/day + estradiol (2 mg estradiol valerate)
# [18] = NOMAC 5 mg/day + estradiol (2 mg estradiol valerate)
# [19] = NOMAC 0.625 mg/day (n = 32) + estradiol (2 mg estradiol valerate)
# [20] = NOMAC 1.25 mg/day (n = 33) + estradiol (2 mg estradiol valerate)
# [21] = NOMAC 2.5 mg/day (n = 34) + estradiol (2 mg estradiol valerate)
# [22] = NOMAC 5 mg/day (n = 40) + estradiol (2 mg estradiol valerate)
smiles,measurement,setting,value
"CC(=O)O[C@]1(C(C)=O)CC[C@H]2[C@@H]3C=C(C)C4=CC(=O)CC[C@@H]4[C@H]3CC[C@@]21C [Nomegestrol acetate, nomegestrol acetate]",Percentage of women who showed no genital bleeding at all throughout the therapy,menopausal women [1]; 0.625 mg/day + 1.5 mg/day estradiol,42.5%
same,Percentage of women who showed no genital bleeding at all throughout the therapy,menopausal women [1]; 1.25 mg/day + 1.5 mg/day estradiol,58.1%
same,Percentage of women who showed no genital bleeding at all throughout the therapy,menopausal women [1]; 2.5 mg/day + 1.5 mg/day estradiol,52.4%
same,Percentage of women who showed no genital bleeding at all throughout the therapy,menopausal women [1]; 5 mg/day + 1.5 mg/day estradiol,68.1%
same,Mean thickness at the end of the treatment,endometrium [2]; [15],3.18 mm
same,Mean thickness increase under the treatment,endometrium [2]; [15],0.39 mm
same,Mean thickness at the end of the treatment,endometrium [2]; [16],4.05 mm
same,Mean thickness increase under the treatment,endometrium [2]; [16],1.12 mm
same,Mean thickness at the end of the treatment,endometrium [2]; [17],3.93 mm
same,Mean thickness increase under the treatment,endometrium [2]; [17],1.36 mm
same,Mean thickness at the end of the treatment,endometrium [2]; [18],3.83 mm
same,Mean thickness increase under the treatment,"endometrium [2]; NOMAC 5 mg/day + estradiol (2 mg estradiol valerate), listed as NOMAC",1.57 mm
same,Mean thickness increase under the treatment,"endometrium [2]; NOMAC 5 mg/day + estradiol (2 mg estradiol valerate), listed as nomegestrol acetate",1.56 mm
same,"Tolerance: effect on lipids profile, tolerance to glucides, arterial pressure, coagulation factors",[3],"no effect on the lipids profile, the tolerance to glucides, the arterial pressure and the coagulation factors"
same,"Number of mitoses (% of section in which mitoses were present), Glands",endometrial cells; 0.1 mg/day,50%
same,"Number of mitoses (% of section in which mitoses were present), Glands",endometrial cells; 0.25 mg/day,50%
same,"Number of mitoses (% of section in which mitoses were present), Glands",endometrial cells; 0.5 mg/day,0%
same,"Number of mitoses (% of section in which mitoses were present), Glands",endometrial cells; 1 mg/day,0%
same,"Number of mitoses (% of section in which mitoses were present), Glands",endometrial cells; 2 mg/day,0%
same,"Number of mitoses (% of section in which mitoses were present), Glands",endometrial cells; 2.5 mg/day,0%
same,"Number of mitoses (% of section in which mitoses were present), Glands",endometrial cells; 5 mg/day,0%
same,"Number of mitoses (% of section in which mitoses were present), Glands",endometrial cells; 10 mg/day,30%
same,Dose at which mitosis no longer takes place in glandular cells,endometrial cells; sequential therapy with 30 μg ethinyl estradiol,≥ 0.5 mg/day
same,Interval before the appearance of periods after the therapy is discontinued,menopausal women [4]; 0.1 mg/day,-0.5 ± 1.5 days
same,Interval before the appearance of periods after the therapy is discontinued,menopausal women [4]; 0.25 mg/day,-0.5 ± 0.5 days
same,Interval before the appearance of periods after the therapy is discontinued,menopausal women [4]; 0.5 mg/day,1.5 ± 0.5 days
same,Interval before the appearance of periods after the therapy is discontinued,menopausal women [4]; 1.0 mg/day,2.7 ± 0.2 days
same,Interval before the appearance of periods after the therapy is discontinued,menopausal women [4]; 2.5 mg/day,3.2 ± 0.2 days
same,Interval before the appearance of periods after the therapy is discontinued,menopausal women [4]; 5 mg/day,4.3 ± 0.4 days
same,Interval before the appearance of periods after the therapy is discontinued,menopausal women [4]; 10 mg/day,3.8 ± 0.8 days
same,"Absence of endometrium, number of women",endometrium [5]; [19],5
same,"Atrophic endometrium, number of women",endometrium [5]; [19],19
same,"Polyps, number of women",endometrium [5]; [19],0
same,"Secretory endometrium, number of women",endometrium [5]; [19],8
same,"Absence of endometrium, percentage",endometrium [5]; [15],(15.6) percentage
same,"Atrophic endometrium, percentage",endometrium [5]; [15],(59.4) percentage
same,"Secretory endometrium, percentage",endometrium [5]; [15],(25.0) percentage
same,"Absence of endometrium, number of women",endometrium [5]; [20],10
same,"Atrophic endometrium, number of women",endometrium [5]; [20],10
same,"Polyps, number of women",endometrium [5]; [20],1
same,"Secretory endometrium, number of women",endometrium [5]; [20],12
same,"Absence of endometrium, percentage",endometrium [5]; [16],(30.3) percentage
same,"Atrophic endometrium, percentage",endometrium [5]; [16],(30.3) percentage
same,"Polyps, percentage",endometrium [5]; [16],(3.0) percentage
same,"Secretory endometrium, percentage",endometrium [5]; [16],(36.4) percentage
same,"Absence of endometrium, number of women",endometrium [5]; [21],3
same,"Atrophic endometrium, number of women",endometrium [5]; [21],8
same,"Polyps, number of women",endometrium [5]; [21],1
same,"Secretory endometrium, number of women",endometrium [5]; [21],22
same,"Absence of endometrium, percentage",endometrium [5]; [17],(8.8) percentage
same,"Atrophic endometrium, percentage",endometrium [5]; [17],(23.5) percentage
same,"Polyps, percentage",endometrium [5]; [17],(2.9) percentage
same,"Secretory endometrium, percentage",endometrium [5]; [17],(64.7) percentage
same,"Absence of endometrium, number of women",endometrium [5]; [22],3
same,"Atrophic endometrium, number of women",endometrium [5]; [22],3
same,"Polyps, number of women",endometrium [5]; [22],0
same,"Secretory endometrium, number of women",endometrium [5]; [22],34
same,"Absence of endometrium, percentage",endometrium [5]; [18],(7.5) percentage
same,"Atrophic endometrium, percentage",endometrium [5]; [18],(7.5) percentage
same,"Secretory endometrium, percentage",endometrium [5]; [18],(85.0) percentage
same,Endometrial hyperplasia,"endometrium [6]; 5 mg/day for 12 days per cycle, with various estrogens, 150 women over 1 year (THOMAS et al. 1993)",makes it possible to prevent endometrial hyperplasia
same,Endometrial hyperplasia,"endometrium [6]; 5 mg/day for 14 days per cycle, women treated with percutaneous estradiol (BERNARD et al. 1994)",absence of hyperplasia was confirmed
C#CC1(O)CC[C@H]2[C@@H]3CCC4=CC(=O)CC[C@@H]4[C@H]3CC[C@@]21CC (stereo partly shown) [Norgestrel],Dose necessary to have a contraceptive effect (4),[7],250 µg/day
same,"Dose necessary to produce an adequate delay in the onset of periods (2), Menstruation",[8],2000 µg/day
same,Dose necessary to induce transformation of the endometrium (1),endometrium [9],1200 µg/day
same,"Dose ratio, Ovulation (3)",ovulation [10],1.0
same,"Dose ratio, Endometrium (1)",endometrium [11],1.0
same,"Dose ratio, Contraception (4)",[12],1.0
same,"Dose ratio, Menstruation (2)",[13],1.0
same,Dose necessary to inhibit ovulation (3),ovulation [14],100 µg/day
